These results are taken from patent US20230069174A1, “NITROGEN-CONTAINING HETEROCYCLIC AUTOTAXIN INHIBITOR, AND COMPOSITION CONTAINING SAME AND USE THEREOF” (SICHUAN HAISCO PHARMACEUTICAL CO., LTD., priority 2019, published 2023).

Read-outs that look alike come from different tables or passages of the source.

Series [1] is described as follows: Pharmacokinetic experiment in mice (single dose iv and intragastric). It is filed as in vivo. The conditions noted are these: mouse, plasma, male C57 mice; for bioavailability: po 10 mg/kg vs iv 2.5 mg/kg, read-out: F (bioavailability). The procedure: Experimental objective: In this experiment, a single dose of each test compound was administered to C57 mice intravenously and intragastrically, the concentrations of the compounds 35, 37 and 38 in plasma of the mice were measured, and the pharmacokinetic characteristics and bioavailability of each test compound in mice were evaluated.
Experimental animals: Male C57 mice, 20-25 g, 6-8 weeks old, 18 mice/compound. The experimental animals were purchased from CHENGDU DOSSY EXPERIMENTAL ANIMALS CO., LTD.
Experimental method: On the day of the experiment, 18 C57 mice were randomly grouped according to their body weight. The animals were fasted with water available for 12 to 14 hours one day before the administration of a test compound, and were fed 4 hours after the administration.
Before and after the administration, 0.08 ml of blood was taken from the orbit of the […] under isoflurane anesthesia, and placed in an EDTAK2 centrifuge tube. Centrifugation was carried out at 5000 rpm at 4° C. for 10 min and the plasma was collected.
Time points for plasma collection in G1 group: 0, 5, 15, 30 min, 1, 2, 4, 6, 8, and 24 h.
Time points for plasma collection in G2 group: 0, 15, 30 min, 1, 2, 4, 6, 8, and 24 h.
Before analysis and detection, all samples were stored at −80° C.
30 μL of each of plasma sample, standard curve and quality control sample was taken, and 200 μL of acetonitrile solution containing internal standard was added, and the mixture was homogeneously mixed by vortex, and then centrifuged at 12000 rpm for 10 min at 4° C. The supernatant was taken and added into a 96-well plate and analyzed by LC-MS/MS.
The main pharmacokinetic parameters were analyzed by non-compartmental model using WinNonlin 8.0 software.

Series [2] deals with T1, ATX (Homo sapiens, UniProt Q13822).
T1 construct: ATX activity was detected by detecting LPA production in pooled human plasma; from tissue; host or cells: pooled human plasma (heparin-anticoagulated whole blood, centrifuged)
As to the kind of experiment: ATX inhibitory activity: LPA production in pooled human plasma, LC-MS-MS. The format is biochemical. The conditions noted are these: 37° C. 2 h. The procedure:
Experimental subject: compounds to be tested.
ATX activity was detected by detecting LPA production in pooled human plasma. Whole blood anticoagulated with heparin was collected and centrifuged, and then plasma was collected. 5-μL gradient dilution of the compound to be tested or DMSO was added to 95-μL plasma, incubated at 37° C. for 2 h, then a stop solution (40 mM disodium hydrogen phosphate buffer, containing a buffer solution (containing 30 mM citric acid, pH=4)) was added. LPA in plasma was detected by LC-MS-MS before and after incubation.
LPA (18:2) and (20:4) LC-MS-MS analytical method
Using a 1.5 mL EP tube, 3.0 μL of each of the working solutions for standard curve and quality control was taken and added to 27.0 μL of water. After homogeneously mixing by vortex, 400 μL of internal standard solution was added. After homogeneously mixing by vortex, the mixture was centrifuged at 4° C. for 10 min. 180 μL of supernatant was taken and added into a 96-well plate, waiting for sample injection.
10 μL of the compound to be tested (10 mg/ml) was precisely pipetted into an EP tube, 990 μL of DMSO solution was added, and the mixture was vortexed to completely dissolve to obtain a solution (100 μg/mL).
Inhibition rate of ATX receptor activity was calculated in the following way: inhibition rate %=((LPAc−LPA0)−(LPAi−LPA0))/(LPAc−LPA0)*100%, wherein LPAc was the LPA content in plasma after DMSO was added and incubated for 2 h, LPA0 was the LPA content in plasma before DMSO was added for incubation, and LPAi was the LPA content in plasma after test compound was added and incubated for 2 h.

[3] abbreviates: LPA 18:2 readout, read-out: Inhibitory activity against ATX receptor, LPA 18:2 IC50.
[4] abbreviates: LPA 20:4 readout, read-out: Inhibitory activity against ATX receptor, LPA 20:4 IC50.

For `C[C@@](F)(C(=O)N1CCc2[nH]nnc2C1)c1nnc(-c2cnc(NC3Cc4ccccc4C3)nc2)o1` (single isomer, unassigned) [Compound 38], the bioavailability in series [1] was determined as 59.3%. In addition, in series [1] (iv 2.5 mg/kg), the AUC stood at 1480 ng·h/mL, the C0 was 3330 ng/mL and the half-life was 33.1 min. Also, in series [1] (po 10 mg/kg), the AUC was determined as 3500 ng·h/mL, the highest level (Cmax) was 3590 ng/mL, the Tmax came to 15 min and the half-life was 48.3 min. Also, in series [2] (setting [3]), the IC50 worked out at 5.53 nM. Further, the IC50 in series [2] (setting [4]) is 5.88 nM.
In the case of `O=C(Cc1nnc(-c2cnc(N[C@@H]3Cc4ccc(C(F)(F)F)cc4C3)nc2)o1)N1CCc2[nH]nnc2C1` [Compound 35, (R)-1-(1,4,6,7-tetrahydro-5H-[1,2,3]triazolo[4,5-c]pyridin-5-yl)-2-(5-(2-((5-(trifluoromethyl)-2,3-dihydro-1H-inden-2-yl)amino)pyrimidin-5-yl)-1,3,4-oxadiazol-2-yl)ethan-1-one], in series [1], the bioavailability worked out at 35.6%. In series [1] (iv 2.5 mg/kg), this compound showed an AUC of 6780 ng·h/mL, a C0 of 6850 ng/mL and a half-life of 61.2 min. For the same compound, in series [1] (po 10 mg/kg), the AUC was found to be 9650 ng·h/mL, the highest level (Cmax) was 3370 ng/mL, the time of peak concentration (Tmax) was 30 min and the half-life is 56.8 min. Besides, the IC50 in series [2] (setting [3]) turned out to be 2.17 nM. In addition, the 50% inhibitory concentration (IC50) in series [2] (setting [4]) is 2.25 nM.
`O=C(Cc1nnc(-c2cnc(N[C@@H]3Cc4ccc(C(F)F)cc4C3)nc2)o1)N1CCc2[nH]nnc2C1` [Compound 37, (R)-2-(5-(2-((5-(difluoromethyl)-2,3-dihydro-1H-inden-2-yl)amino)pyrimidin-5-yl)-1,3,4-oxadiazol-2-yl)-1-(1,4,6,7-tetrahydro-5H-[1,2,3]triazolo[4,5-c]pyridin-5-yl)ethan-1-one]: in series [1], the bioavailability worked out at 17.8%. Further, in series [1] (iv 2.5 mg/kg), the AUC worked out at 3790 ng·h/mL, the C0 is 6640 ng/mL and the half-life is 53.3 min. Further, in series [1] (po 10 mg/kg), the AUC was 2700 ng·h/mL, the peak concentration (Cmax) was 1600 ng/mL, the Tmax turned out to be 15 min and the half-life was 78.6 min. In addition, the IC50 in series [2] (setting [3]) turned out to be 4.84 nM. Besides, the IC50 in series [2] (setting [4]) is 4.78 nM.
As to `N#Cc1nc(CC(=O)N2CCc3[nH]nnc3C2)oc1-c1cnc(NC2Cc3ccccc3C2)nc1` [Compound 22, 5-(2-((2,3-dihydro-1H-inden-2-yl)amino)pyrimidin-5-yl)-2-(2-oxo-2-(1,4,6,7-tetrahydro-5H-[1,2,3]triazolo[4,5-c]pyridin-5-yl)ethyl)oxazole-4-carbonitrile], the IC50 amounted to 4.97 nM in series [2] (setting [3]) and 6.84 nM in series [2] (setting [4]).

Broadly, the bioavailability is dose-corrected exposure relative to a reference, in per cent. Usually AUC stands for the area under the concentration-time curve, a measure of exposure. Usually half-life stands for the time needed for the level to fall by half in the phase considered. A low value points to rapid decline. As usually defined, the Cmax is the maximum level reached in the sampled fluid or tissue. What is called Tmax is the time at which the peak concentration occurs. In general, IC50 refers to the concentration needed to halve the response being measured.
